Data as given in patent US12377173B2, “Compositions comprising hyperpolarized probes for H2O2 sensing and methods of using same” (Duke University, priority 2021, dated 2025).

Assays:
[1] = ROS selectivity test, LC/MS conversion to 4-cyanopyridine; conditions: 200 μM BBCP, 2 mM H2O2 (10 equiv), PBS pH 7.4, 5-30 min, room temperature
Experimental: (§1) Selectivity for the BBCP probe was measured by analytical high performance liquid chromatography (HPLC) using Agilent 1200 Series HPLC System equipped with a multi-wavelength detector and an Agilent Zorbax SB-C18 Column (3.5 μm particle size, 3.0×150 mm). Concentrations of 4-cyanopyridine was calculated using integrated peak intensities at 280 nm using a calibration curve. All reactions were tested with 200 μM BBCP and 2 mM ROS/RNS (10 equiv) in PBS (pH 7.4). At a given time point, the reaction was quenched with 10 μL 1 M ascorbic acid (10 mM) and analyzed by LCMS. The ROS and RNS were generated as follows:
H2O2: A 30% H2O2 in H2O solution was diluted to a 500 mM stock solution. 4 μL of 500 mM H2O2 (2 mM) was added to a 200 μM of BBCP in PBS.

[2] = ROS/RNS/reactive sulfur selectivity test, LC/MS; conditions: 200 μM probe, 2 mM reactive species, PBS pH 7.4, LC/MS (FIG. 1B)
Experimental: as §1, with “LCMS.” for “LCMS. The ROS and RNS were generated as follows:”

[3] = In vivo reaction-based detection of H2O2 with hyperpolarized 15N-BBCP; conditions: rat
Experimental: Finally, the ability of ^15N-BBCP to image H2O2 in vivo using clinical 3 T MRI was assessed.
Finally, the feasibility of ^15N-BBCP to detect H2O2 in vivo was investigated in a rat model at the clinical 3 T MRI. […] Despite the small chemical shift difference, the accumulation of ^15N-HBCP production was clearly observed in the later time points.

[4] = UV/Vis kinetics measurement; conditions: 25° C., PBS pH 7.4, 50 μM BBCP, 5 mM H2O2 (100 equiv)
Experimental: The pseudo-first order rate constant was calculated by monitoring the BBCP consumption with UV/Vis spectroscopy over time in the presence of excess H2O2. A solution of BBCP (50 μM) oxidation was initiated by the addition of freshly prepared H2O2 (5 mM, 100 equiv) in PBS (pH 7.4) at 25° C. Reactions were monitored as Abs310 change and scanned every 30 s for 20 minutes. The apparent k1 value was determined by the initial rate of reaction (0-50 s) as (3.4±0.15)×10^−3 min^−1. The experiment was repeated in triplicate to give a k2 value of 12.6±0.52 M^−1 min^−1 (0.21±0.0087 M^−1 s^−1).

[5] = ROS selectivity test, LC/MS; conditions: 200 μM BBCP, 2 mM OCl^−, PBS pH 7.4, LC/MS
Experimental: as §1
OCl^−: Commercial bleach (8.25% NaOCl) was diluted to 500 mM. 4 μL of 500 mM NaOCl (for a final concentration of 2 mM) was added to 200 μM of BBCP.

[6] = ROS/RNS selectivity test, LC/MS; conditions: 200 μM BBCP, 2 mM ONOO^−, PBS pH 7.4, LC/MS
Experimental: as §1
ONOO^−: To a solution of aqueous NaOH (0.5 M, 2.5 mL) and iPrOH (2.5 mL) was added H2O2 (30% in H2O, 0.12 mL, 1.2 mmol, 1.2 equiv), followed by isoamyl nitrite (0.135 mL, 1.0 mmol, […]). The reaction was stirred at room temperature for 20 mins and washed with CH2Cl2 (10 mL×2). […] The solution was then filtered and stored in −20° C. until use. The concentration of the stock solution was calculated to be 14.3 mM using absorbance at 302 nm (e=1670 M^−1).

HeLa cells = experiment: Cytotoxicity analysis using WST-8 assay (CCK-8); type: cell-based; conditions: concentrations up to 10 mM, 6 h of treatment
Experimental: WST cytotoxicity assay was performed using Cell Counting Kit-8 (CCK-8) according to the procedure as follows. HeLa cells were seeded in a 96-well plate at a concentration of 5000 cells/well in DMEM medium (high glucose) supplemented with 10% FBS and 1% sodium pyruvate. The cell cultures were incubated for 24 h in a humidified atmosphere of 5% CO2 at 37° C. After the incubation period, 10 μL of 5, 10, 50, 100 mM stock solutions of BBCP dissolved in PBS buffer (pH 7.4) were added to each well so the final concentration is 0.5, 1, 5, 10 mM, respectively. PBS and sodium dodecyl sulfate (SDS) (1 mM) were used as negative and positive controls, respectively. The treated 96-well plates were incubated for 6 and 24 h in a humidified atmosphere of 5% CO2 at 37° C. After appropriate incubation time, the CCK-8 solution (10 μL) was added to each well and further incubated for 2 h for color development. The absorbance at 450 nm from each well was measured by using a microplate reader (Synergy™ H1, BioTek). The background absorbance of BBCP corrected.

[7] = Stability in PBS and DMEM media (LCMS)
[8] = injection of exogenous H2O2, 3 T 15N-MRS (Example 3)

In the case of “1-(4-boronobenzyl)-4-(cyano)pyridin-1-ium [^15N-BBCP]”, the “conversion to 4-cyanopyridine on reaction with H2O2” value [1] is reported as “significant conversion to 4-cyanopyridine”, the reactivity toward hydrogensulfite [2] is reported as “showed reactivity” and the “15N-CP (fragmentation product) signal in vivo” value [3, 8] is reported as “^15N-CP was not observed”. For the same substance, the “15N-HBCP (oxidation product) signal in vivo” value [3, 8] was “^15N-HBCP peak was detectable”, the “15N-CP (fragmentation product) signal in vivo” value ([3]; intravenous bolus 40-mM after intraperitoneal H2O2, 3 T) was “^15N-CP was not observed” and the “15N-HBCP (oxidation product) signal in vivo” value ([3]; intravenous bolus 40-mM after intraperitoneal H2O2, slab with liver and kidneys, 3 T) was “both ^15N-BBCP and ^15N-HBCP peaks appeared”. For the same substance, the “apparent k1 (pseudo-first order rate constant), initial rate 0-50 s” value [4] was “(3.4±0.15)×10^−3 min^−1”, the reactivity with hypochlorite [5] was “moderate reactivity” and the reactivity with peroxynitrite [6] was “moderate reactivity”. The cell viability (HeLa cells) was over 90%, the “LCMS absorbance peak area of the probe in PBS” value (“LCMS absorbance peak area” below) ([7]; 0 hours) was 566.6 and the “time stable in PBS and DMEM media” value ([7]; 200 μM probe, pH 7.4, room temp, LCMS) was “over 26 h”. The “LCMS absorbance peak area” value ([7]; 2 hours) was 565.6, the “LCMS absorbance peak area” value ([7]; 26 hours) was 564.9 and the “stability in physiological buffer solution (in words)” value ([7]; PBS, pH 7.4, 200 μM, 0, 2 and 24 h (FIG. 4)) was “only showing hydrolysis of boronic ester to boronic acid”.
